{
  "source": "patent US7741281B2",
  "about": "“Hepatitis C virus inhibitors” (Bristol-Myers Squibb Company, priority 2005, dated 2010)",
  "key": {"[1]": {"test_system": "HCV replicon in HUH-7 cells", "test": "HCV replicon FRET assay", "type": "cell-based, HCV strain 1b", "conditions": "Hepatitis C virus", "description": "An HCV replicon whole cell system was established as described by Lohmann V, Korner F, Koch J, Herian U, Theilmann L, Bartenschlager R., Science 285(5424):110-3 (1999). This system enabled us to evaluate the effects of our HCV Protease compounds on HCV RNA replication. Briefly, using the HCV strain 1b sequence described in the Lohmann paper (Assession number: AJ238799), an HCV cDNA was synthesized by Operon Technologies, Inc. (Alameda, Calif.), and the full-length replicon was then assembled in plasmid pGem9zf(+) (Promega, Madison, Wis.) using standard molecular biology techniques. The replicon consists of (i) the HCV 5′ UTR fused to the first 12 amino acids of the capsid protein, (ii) the neomycin phosphotransferase gene (neo), (iii) the IRES from encephalomyocarditis virus (EMCV), and (iv) HCV NS3 to NS5B genes and the HCV 3′ UTR. Plasmid DNAs were linearized with ScaI and RNA transcripts were synthesized in vitro using the T7 MegaScript transcription kit (Ambion, Austin, Tex.) according to manufacturer's directions. In vitro transcripts of the cDNA were transfected into the human hepatoma cell line, HUH-7. […] Resulting cell lines were characterized for positive and negative strand RNA production and protein production over time.\nThe HCV replicon FRET assay was developed to monitor the inhibitory effects of compounds described in the disclosure on HCV viral replication. HUH-7 cells, constitutively expressing the HCV replicon, were grown in Dulbecco's Modified Eagle Media (DMEM) (Gibco-BRL) containing 10% Fetal calf serum (FCS) (Sigma) and 1 mg/ml G418 (Gibco-BRL). Cells were seeded the night before (1.5×10^4 cells/well) in 96-well tissue-culture sterile plates. Compound and no compound controls were prepared in DMEM containing 4% FCS, 1:100 Penicillin/Streptomysin (Gibco-BRL), 1:100 L-glutamine and 5% DMSO in the dilution plate (0.5% DMSO final concentration in the assay). Compound/DMSO mixes were added to the cells and incubated for 4 days at 37° C. After 4 days, cells were first assessed for cytotoxicity using alamar Blue (Trek Diagnotstic Systems) for a CC50 reading. The toxicity of compound (CC50) was determined by adding 1/10th volume of alamar Blue to the media incubating the cells. After 4 hours, the fluorescence signal from each well was read, with an excitation wavelength at 530 nm and an emission wavelength of 580 nm, using the Cytofluor Series 4000 (Perspective Biosystems). Plates were then rinsed thoroughly with Phosphate-Buffered Saline (PBS) (3 times 150 μl). The cells were lysed with 25 μl of a lysis assay reagent containing an HCV protease substrate (5× cell Luciferase cell culture lysis reagent (Promega #El 53A) diluted to 1× with distilled water, NaCl added to 150 mM final, the FRET peptide substrate (as described for the enzyme assay above) diluted to 10 μM final from a 2 mM stock in 100% DMSO. […]. The plate was then placed into the Cytofluor 4000 instrument which had been set to 340 nm excitation/490 nm emission, automatic mode for 21 cycles and the plate read in a kinetic mode. EC50 determinations were carried out as described for the IC50 determinations."}, "[2]": {"test_system": "HCV replicon (Renilla luciferase) in HUH-7 cells", "test": "HCV replicon luciferase reporter assay", "type": "cell-based, HCV strain 1b", "conditions": "Huh-7, 96 h, 4 days", "description": "An HCV replicon whole cell system was established as described by Lohmann V, Korner F, Koch J, Herian U, Theilmann L, Bartenschlager R., Science 285(5424):110-3 (1999). This system enabled us to evaluate the effects of our HCV Protease compounds on HCV RNA replication. Briefly, using the HCV strain 1b sequence described in the Lohmann paper (Assession number: AJ238799), an HCV cDNA was synthesized by Operon Technologies, Inc. (Alameda, Calif.), and the full-length replicon was then assembled in plasmid pGem9zf(+) (Promega, Madison, Wis.) using standard molecular biology techniques. […]\nAs a secondary assay, EC50 determinations from the replicon FRET assay were confirmed in a replicon luciferase reporter assay. […] Following 4 days in a 37° C./5% CO2 incubator, cells were analyzed for Renilla Luciferase activity using the Promega Dual-Glo Luciferase Assay System. […] Plates were read on a Packard TopCount NXT using a luminescence program.\nThe percentage inhibition was calculated using the formula below: % control=average luciferase signal in experimental wells (+compound)\naverage luciferase signal in DMSO control wells (−compound) The values were graphed and analyzed using XLfit to obtain the EC50 value."}, "[3]": {"test_system": "human pancreatic chymotrypsin", "test": "Specificity assay, chymotrypsin (pNA substrate)", "type": "biochemical", "conditions": "read-out: Chymotrypsin activity in the specificity assays (IC50)", "procedure": "The specificities of compounds of the present disclosure were determined against a variety of serine proteases: human neutrophil elastase (HNE), porcine pancreatic elastase (PPE) and human pancreatic chymotrypsin and one cysteine protease: human liver cathepsin B. In all cases, a 96-well plate format protocol using colorimetric p-nitroaniline (pNA) substrate or fluorometric Amino-Methyl-Coumarin (AMC) substrate, specific for each enzyme was used as described previously (PCT Patent Application No. WO 00/09543) with some modifications. All enzymes were purchased from Sigma or EMDbiosciences while the substrates were from Bachem.\nEach pNA assay included a 2 h enzyme-inhibitor pre-incubation at room temperature followed by addition of substrate and hydrolysis to ˜15% conversion as measured on a Spectramax Pro microplate reader. The cathepsin B assay was initiated by adding substrate to a 10 min enzyme-inhibitor pre-incubation at room temperature, and the assay plate measured immediately using the Cytofluor Series 4000. Compound concentrations varied from 100 to 0.4 μM depending on their potency.\nThe final conditions for each assay were as follows: […]\nThe percentage of inhibition was calculated using the formula: [1−((UVinh−UVblank)/(UVctl−UVblank))]×100 […]"}},
  "note": "Where two headings read alike, the source gives them in different places.",
  "data": [
    {"smiles": "COc1c(O[C@@H]2C[C@H]3C(=O)N[C@]4(C(=O)NS(=O)(=O)C5CC5)C[C@H]4/C=C\\CCCCC[C@H](NC(=O)OC(C)(C)C)C(=O)N3C2)ccc2c(Cl)nccc12", "note": "[Compound 3]", "values": [
      {"measurement": "EC50", "setting": "[1]; 96 h, HUH-7 replicon cells, 4 days, read-out: EC50 value in the replicon FRET assay", "result": 14.6, "unit": "nM"},
      {"measurement": "EC50", "setting": "[1]; Huh-7, HCV replicon, read-out: EC50 Activity Range", "result": "< 100", "unit": "nM"},
      {"measurement": "EC50", "setting": "[2]", "result": 5.5, "unit": "nM"},
      {"measurement": "IC50", "setting": "[3]", "result": "> 100000", "unit": "nM"}
    ]}
  ]
}
